{"source": "patent US20260191835A1", "about": "“COMBINATIONS COMPRISING A MENIN-MLL INHIBITOR AND AT LEAST ONE OTHER THERAPEUTIC AGENT” (JANSSEN PHARMACEUTICA NV, priority 2022, published 2026)", "tested_on": "MOLM-13 tumors", "assay": "Efficacy (survival) in disseminated MOLM-13 (KMT2A-rearranged) model in NSG mice", "assay_type": "in vivo", "details": "NSG mice bearing established MOLM-13 tumors, vs vehicle; Azacitidine 2 mg/kg ip QD × 7; Compound 51 2 mg/kg po QD × 28; n = 10", "method": "4) Efficacy of Menin-MLL Inhibitor in Combination with Azacitidine in MOLM-13 (KMT2A-Rearranged) Model in NSG Mice\nCompound 51 was formulated in purified pyrogen-free deionized water, pH 4.0 and prepared to reach a total volume of 8 mL/kg. Doses were adjusted by individual body weight each day. Working stocks of Compound 51 were prepared once per week for each study and stored at 25° C.\nFemale NSG (NOD.Cg-Prkdc^scid Il2rg^tm1Wjl/SzJ) mice were used when they were approximately 6 to 8 weeks of age and weighed approximately 25 g. All animals could acclimate and recover from any shipping-related stress for a minimum of 7 days prior to experimental use. […]\nAnimals were monitored daily for clinical signs related to either compound toxicity or tumor burden (i.e., hind limb paralysis, lethargy, etc.).\nFor survival assessment, results were plotted as the percentage survival against days post tumor implant. […] Median survival was determined utilizing Kaplan-Meier survival analysis. The percent increased life span (ILS) was calculated as: ((median survival day of treated group−median survival day of control group)/median survival day of control group)×100. […]\nSurvival and body weight data were graphically represented utilizing Prism (Version 9). Statistical significance for body weights was evaluated as described above. […]", "data": [{"smiles": "CC(=O)N1CCC(CN2CC[C@@H](Cc3cn(-c4ccc(F)cc4C(=O)N(C)C(C)C)c4cncc(C)c34)C2)CC1", "note": "[Compound 51]", "values": [{"measurement": "% ILS (increased life span)", "value": "*5%"}]}]}
